# Patent publication US8735411B2, “Macrocyclic benzofused pyrimidine derivatives” (AbbVie Inc., priority 2006, dated 2014)
# Target: histamine H4 receptor (Homo sapiens, UniProt Q9H3N8)
# Experiment: In vitro histamine H4 potency in FLIPR (Ca2+ flux, HEK-293 cells coexpressing Gαqi5)
# Assay type: cell-based
# Set-up: expressed in transfected cells
# Conditions: Kb for antagonists and inverse agonists, EC50 for partial agonists
# Description: There are many methods available to show the effectiveness of compounds as histamine H4 receptor ligands. Histamine H4 receptors from mammalian species have been cloned. Methods to clone, express, and assess the potency and functional activity of such cloned genes are well known to those skilled in the art of molecular biology. […] Before testing, cells are loaded with a Ca^+2 sensitive fluorescent dye, in this case Fluo-4. In the case of partial agonist or agonist ligands, addition of compound to the cells leads to the increase in intracellular Ca^+2 which is detected by FLIPR (Fluorescence Imaging Plate Reader; Molecular Devices, Sunnyvale, Calif.) technology. […] The fluorescence intensities measured before addition of the test compound are subtracted from the fluorescence intensities at later time points. Peak response values determined at each concentration of ligand are expressed as a percentage of the response obtained with the full agonist histamine. Concentration versus response data are analyzed to obtain compound potency as Kb values for antagonists and inverse agonists and as EC50 values for partial agonists.
row,Potency [nM],Structure (SMILES)
1,3162,"CN1CCCC(Oc2nc(N)nc3c2CCCc2ccccc2-3)C1 (centres unmarked) [Example 69, 4-(1-Methyl-piperidin-3-yloxy)-6,7-dihydro-5H-benzo[6,7]cyclohepta[1,2-d]pyrimidin-2-ylamine]"
2,44,"Nc1nc2c(c(N3CC4CCCNC4C3)n1)CCCc1ccccc1-2 (centres unmarked) [Example 59, 4-octahydro-6H-pyrrolo[3,4-b]pyridin-6-yl-6,7-dihydro-5H-benzo[6,7]cyclohepta[1,2-d]pyrimidin-2-amine]"
3,16596,"Nc1nc2c(c(N3CC[C@H]4CNC[C@H]43)n1)CCCCCc1ccccc1-2 [Example 27, 4-((3aS,6aS)-Hexahydro-pyrrolo[3,4-b]pyrrol-1-yl)-6,7,8,9-tetrahydro-5H-1,3-diaza-dibenzo[a,c]cyclononen-2-ylamine]"
4,166,"Nc1nc2c(c(N3CCNCC3)n1)CCOc1ccccc1-2 [Example 30, 4-Piperazin-1-yl-5,6-dihydro-7-oxa-1,3-diaza-dibenzo[a,c]cyclohepten-2-ylamine]"
5,263,"CN1CC[C@H](Oc2nc(N)nc3c2CCCc2ccccc2-3)C1 [Example 71, 4-((S)-1-Methyl-pyrrolidin-3-yloxy)-6,7-dihydro-5H-benzo[6,7]cyclohepta[1,2-d]pyrimidin-2-ylamine]"
6,45,"Nc1nc2c(c(N3CC4CCCNC4C3)n1)CCOc1cc(I)ccc1-2 (centres unmarked) [Example 102, 9-Iodo-4-octahydro-pyrrolo[3,4-b]pyridin-6-yl-5,6-dihydro-7-oxa-1,3-diaza-dibenzo[a,c]cyclohepten-2-ylamine]"
7,4.2,"CN[C@@H]1CCN(c2nc(N)nc3c2CCSc2ccccc2-3)C1 [Example 34, 4-(3-(R)-Methylamino-pyrrolidin-1-yl)-5,6-dihydro-7-thia-1,3-diaza-dibenzo[a,c]cyclohepten-2-ylamine]"
8,138,"c1ccc2c(c1)CCCc1c-2ncnc1N1CCNCC1 [Example 118, 4-Piperazin-1-yl-6,7-dihydro-5H-benzo[6,7]cyclohepta[1,2-d]pyrimidine]"
9,269,"Nc1nc2c(c(N3CCNCC3)n1)CCOc1cc(I)ccc1-2 [Example 101, 9-Iodo-4-piperazin-1-yl-5,6-dihydro-7-oxa-1,3-diaza-dibenzo[a,c]cyclohepten-2-ylamine]"
10,25119,"CNC(=O)Nc1nc2c(c(N3CCNCC3)n1)CCCc1ccccc1-2 [Example 90, 1-Methyl-3-(4-piperazin-1-yl-6,7-dihydro-5H-benzo[6,7]cyclohepta[1,2-d]pyrimidin-2-yl)-urea]"
11,29,"CN[C@@H]1CCN(c2nc(N)nc3c2CCCc2cc4c(cc2-3)CCCC4)C1 [Example 97, 4-((R)-3-Methylamino-pyrrolidin-1-yl)-6,7,9,10,11,12-hexahydro-5H-1,3-diaza-benzo[3,4]cyclohepta[1,2-b]naphthalen-2-ylamine]"
12,9.1,"Nc1nc2c(c(N3CCNCCNCC3)n1)CCCc1ccccc1-2 [Example 94, 4-[1,4,7]Triazonan-1-yl-6,7-dihydro-5H-benzo[6,7]cyclohepta[1,2-d]pyrimidin-2-ylamine]"
13,9333,"Nc1nc2c(c(N3CC4(CCCNC4)C3)n1)CCCc1ccccc1-2 [Example 77, 4-(2,6-Diaza-spiro[3.5]non-2-yl)-6,7-dihydro-5H-benzo[6,7]cyclohepta[1,2-d]pyrimidin-2-ylamine]"
14,209,"CNCC(=O)Nc1nc2c(c(N3CCNCC3)n1)CCCc1ccccc1-2 [Example 88, 2-Methylamino-N-(4-piperazin-1-yl-6,7-dihydro-5H-benzo[6,7]cyclohepta[1,2-d]pyrimidin-2-yl)-acetamide]"
15,50,"CN1CCN(c2nc(N)nc3c2OCc2ccccc2-3)CC1 [Example 41, 1-(4-Methyl-piperazin-1-yl)-9H-10-oxa-2,4-diaza-phenanthren-3-ylamine]"
16,646,"Nc1nc2c(c(N3CC[C@H](N)C3)n1)CCCCCc1ccccc1-2 [Example 25, 4-((S)-3-Amino-pyrrolidin-1-yl)-6,7,8,9-tetrahydro-5H-1,3-diaza-dibenzo[a,c]cyclononen-2-ylamine]"
17,398,"CC1Cc2c(nc(N)nc2N2CCNCC2)-c2ccccc21 (centres unmarked) [Example 4, 6-Methyl-4-piperazin-1-yl-5,6-dihydro-benzo[h]quinazolin-2-ylamine]"
18,83,"Nc1nc2c(c(N3CC4CCCNC4C3)n1)CCOc1cc(-c3ccccc3)ccc1-2 (centres unmarked) [Example 105, 4-Octahydro-pyrrolo[3,4-b]pyridin-6-yl-9-phenyl-5,6-dihydro-7-oxa-1,3-diaza-dibenzo[a,c]cyclohepten-2-ylamine]"
19,13,"CN1CCC(Nc2nc(N)nc3c2CCCc2ccccc2-3)CC1 [Example 65, N^4-(1-methylpiperidin-4-yl)-6,7-dihydro-5H-benzo[6,7]cyclohepta[1,2-d]pyrimidine-2,4-diamine]"
20,174,"CN(C)CC(=O)Nc1nc2c(c(N3CCNCC3)n1)CCCc1ccccc1-2 [Example 87, 2-Dimethylamino-N-(4-piperazin-1-yl-6,7-dihydro-5H-benzo[6,7]cyclohepta[1,2-d]pyrimidin-2-yl)-acetamide]"
21,2455,"CN[C@@H]1CCN(c2nc(N)nc3c2[S+]([O-])CCc2ccccc2-3)C1 (stereo partly drawn) [Example 112, 4-((R)-3-Methylamino-pyrrolidin-1-yl)-5-oxo-6,7-dihydro-5-thia-1,3-diaza-dibenzo[a,c]cyclohepten-2-ylamine]"
22,10,"Nc1nc2c(c(N3CCNCC3)n1)COc1ccccc1-2 [Example 10, 1-Piperazin-1-yl-10H-9-oxa-2,4-diaza-phenanthren-3-ylamine]"
23,562,"COC(=O)N(C)c1ccc2c(c1)-c1nc(N)nc(N3CCNCC3)c1CCC2 [Example 128, (2-Amino-4-piperazin-1-yl-6,7-dihydro-5H-benzo[6,7]cyclohepta[1,2-d]pyrimidin-10-yl)-methyl-carbamic acid methyl ester]"
24,54,"Nc1nc2c(c(N3CC4CCCNC4C3)n1)SCCc1ccccc1-2 (centres unmarked) [Example 110, 4-(Octahydro-pyrrolo[3,4-b]pyridin-6-yl)-6,7-dihydro-5-thia-1,3-diaza-dibenzo[a,c]cyclohepten-2-ylamine]"
25,7.2,"Nc1nc2c(c(N3CCNCC3)n1)CCCc1ccc(F)cc1-2 [Example 13, 10-Fluoro-4-piperazin-1-yl-6,7-dihydro-5H-benzo[6,7]cyclohepta[1,2-d]pyrimidin-2-ylamine]"
26,1549,"Nc1nc(NC[C@H]2CCN2)c2c(n1)-c1ccccc1CCC2 [Example 64, N^4-[(2R)-azetidin-2-ylmethyl]-6,7-dihydro-5H-benzo[6,7]cyclohepta[1,2-d]pyrimidine-2,4-diamine]"
27,11,"CN[C@@H]1CCN(c2nc(N)nc3c2SCCc2ccccc2-3)C1 [Example 107, 4-((R)-3-Methylamino-pyrrolidin-1-yl)-6,7-dihydro-5-thia-1,3-diaza-dibenzo[a,c]cyclohepten-2-ylamine]"
28,22,"CN[C@@H]1CCN(c2nc(N)nc3c2CCc2ccccc2-3)C1 [Example 39, 4-(3-(R)-Methylamino-pyrrolidin-1-yl)-5,6-dihydro-benzo[h]quinazolin-2-ylamine]"

row,Structure (SMILES),Potency [nM]
1,"Nc1nc2c(c(N3CC4CNCC4C3)n1)CCCc1ccccc1-2 (centres unmarked) [Example 22, 4-(Hexahydro-pyrrolo[3,4-c]pyrrol-2-yl)-6,7-dihydro-5H-benzo[6,7]cyclohepta[1,2-d]pyrimidin-2-ylamine]",66
